The first series is described as follows: The drug is tested on Blautia hansenii strain: DSM20583 for biotransformation. The drug concentrations were measured before and after a 12-h incubation by liquid-chromatography-coupled mass spectrometry (LC–MS). Particulars: 2 µM.
Take `O=C1CC2(CCCC2)CC(=O)N1CCCCN1CCN(c2ncccn2)CC1` [BUSPIRONE]: the “Bacterial Biotransformation” value is given as “Compound NOT metabolized”.
For the compound `COc1cc2nc(N3CCN(C(=O)C4CCCO4)CC3)nc(N)c2cc1OC` (configuration not stated) [TERAZOSIN], the “Bacterial Biotransformation” value was “Compound NOT metabolized”.

The nature of another series: The drug is tested on Bacteroides vulgatus strain: ATCC8482 for biotransformation. The drug concentrations were measured before and after a 12-h incubation by liquid-chromatography-coupled mass spectrometry (LC–MS). Particulars: phocaeicola vulgatus, 2 µM.
As for `COc1cc2nc(N3CCN(C(=O)C4CCCO4)CC3)nc(N)c2cc1OC` (configuration not stated) [TERAZOSIN], the “Bacterial Biotransformation” value is recorded as “Compound NOT metabolized”.

A short description of a further series: The drug is tested on Bacteroides xylanisolvens strain: DSM18836 for biotransformation. The drug concentrations were measured before and after a 12-h incubation by liquid-chromatography-coupled mass spectrometry (LC–MS). Particulars: 2 µM.
Take `O=C1CC2(CCCC2)CC(=O)N1CCCCN1CCN(c2ncccn2)CC1` [BUSPIRONE]: the “Bacterial Biotransformation” value is given as “Compound NOT metabolized”.
The same measure, in the same setting: then `COc1cc2nc(N3CCN(C(=O)C4CCCO4)CC3)nc(N)c2cc1OC` (configuration not stated) [TERAZOSIN], with “Compound NOT metabolized”.

A further series in a line: The drug is tested on Bacteroides fragilis strain: HMW615 for biotransformation. The drug concentrations were measured before and after a 12-h incubation by liquid-chromatography-coupled mass spectrometry (LC–MS). Particulars: 2 µM.
Take `O=C1CC2(CCCC2)CC(=O)N1CCCCN1CCN(c2ncccn2)CC1` [BUSPIRONE]: the “Bacterial Biotransformation” value was “Compound NOT metabolized”.
Still for that read-out and setting: next, `COc1cc2nc(N3CCN(C(=O)C4CCCO4)CC3)nc(N)c2cc1OC` (configuration not stated) [TERAZOSIN]: “Compound NOT metabolized”.

A short description of another series: The drug is tested on Clostridium sporogenes strain: ATCC15579 for biotransformation. The drug concentrations were measured before and after a 12-h incubation by liquid-chromatography-coupled mass spectrometry (LC–MS). Particulars: 2 µM.
As to `O=C1CC2(CCCC2)CC(=O)N1CCCCN1CCN(c2ncccn2)CC1` [BUSPIRONE], the “Bacterial Biotransformation” value is given as “Compound NOT metabolized”.
For the compound `COc1cc2nc(N3CCN(C(=O)C4CCCO4)CC3)nc(N)c2cc1OC` (configuration not stated) [TERAZOSIN], the “Bacterial Biotransformation” value is “Compound NOT metabolized”.

The next series in a line: The drug is tested on Bacteroides uniformis strain: ATCC8492 for biotransformation. The drug concentrations were measured before and after a 12-h incubation by liquid-chromatography-coupled mass spectrometry (LC–MS). To be noted: 2 µM.
Take `O=C1CC2(CCCC2)CC(=O)N1CCCCN1CCN(c2ncccn2)CC1` [BUSPIRONE]: the “Bacterial Biotransformation” value is on record as “Compound NOT metabolized”.
On the same count and under the same terms, next, `COc1cc2nc(N3CCN(C(=O)C4CCCO4)CC3)nc(N)c2cc1OC` (configuration not stated) [TERAZOSIN]: “Compound NOT metabolized”.

A short description of a further series: The drug is tested on Eubacterium ventriosum strain: ATCC27560 for biotransformation. The drug concentrations were measured before and after a 12-h incubation by liquid-chromatography-coupled mass spectrometry (LC–MS). Particulars: 2 µM. In kind it is ADME. The arrangement: dose 2 uM, timepoint 0 vs 12 hours.
On to `O=C1CC2(CCCC2)CC(=O)N1CCCCN1CCN(c2ncccn2)CC1` [BUSPIRONE], for which the “Bacterial Biotransformation” value is given as “Compound NOT metabolized”.
On the same count and under the same terms, next, `COc1cc2nc(N3CCN(C(=O)C4CCCO4)CC3)nc(N)c2cc1OC` (configuration not stated) [TERAZOSIN]: “Compound NOT metabolized”.

The conditions of another series: segatella copri, 12 h, 2 µM.
Description: The drug is tested on Prevotella copri strain: DSM18205 for biotransformation. The drug concentrations were measured before and after a 12-h incubation by liquid-chromatography-coupled mass spectrometry (LC–MS)
As for `O=C1CC2(CCCC2)CC(=O)N1CCCCN1CCN(c2ncccn2)CC1` [BUSPIRONE], the “Bacterial Biotransformation” value was “Compound NOT metabolized”.
On the same count and under the same terms, then `COc1cc2nc(N3CCN(C(=O)C4CCCO4)CC3)nc(N)c2cc1OC` (configuration not stated) [TERAZOSIN], with “Compound NOT metabolized”.

A further series is described as follows: The drug is tested on Coprococcus comes strain: ATCC27758 for biotransformation. The drug concentrations were measured before and after a 12-h incubation by liquid-chromatography-coupled mass spectrometry (LC–MS). The format is ADME. More on the design: dose 2 uM, timepoint 0 vs 12 hours. Particulars: 2 µM.
Regarding `O=C1CC2(CCCC2)CC(=O)N1CCCCN1CCN(c2ncccn2)CC1` [BUSPIRONE], the “Bacterial Biotransformation” value is “Compound NOT metabolized”.
Still for that read-out and setting: next, `COc1cc2nc(N3CCN(C(=O)C4CCCO4)CC3)nc(N)c2cc1OC` (configuration not stated) [TERAZOSIN]: “Compound NOT metabolized”.

The conditions of the next series: anaerostipes sp., 12 h, 2 µM.
Description: The drug is tested on Anaerostipes sp. strain: fecal isolate for biotransformation. The drug concentrations were measured before and after a 12-h incubation by liquid-chromatography-coupled mass spectrometry (LC–MS)
With `O=C1CC2(CCCC2)CC(=O)N1CCCCN1CCN(c2ncccn2)CC1` [BUSPIRONE], the “Bacterial Biotransformation” value is “Compound NOT metabolized”.
The same measure, in the same setting: then `COc1cc2nc(N3CCN(C(=O)C4CCCO4)CC3)nc(N)c2cc1OC` (configuration not stated) [TERAZOSIN], with “Compound NOT metabolized”.

A further series in a line: The drug is tested on Odoribacter splanchnicus strain: fecal isolate for biotransformation. The drug concentrations were measured before and after a 12-h incubation by liquid-chromatography-coupled mass spectrometry (LC–MS). Particulars: 2 µM.
Turning to `COc1cc2nc(N3CCN(C(=O)C4CCCO4)CC3)nc(N)c2cc1OC` (configuration not stated) [TERAZOSIN], the “Bacterial Biotransformation” value is recorded as “Compound NOT metabolized”.

The next series in a line: The drug is tested on Ruminococcus lactaris strain: ATCC29176 for biotransformation. The drug concentrations were measured before and after a 12-h incubation by liquid-chromatography-coupled mass spectrometry (LC–MS). To be noted: 2 µM.
In the case of `O=C1CC2(CCCC2)CC(=O)N1CCCCN1CCN(c2ncccn2)CC1` [BUSPIRONE], the “Bacterial Biotransformation” value is given as “Compound NOT metabolized”.

Another series is described as follows: The drug is tested on Enterococcus faecalis strain: V583 for biotransformation. The drug concentrations were measured before and after a 12-h incubation by liquid-chromatography-coupled mass spectrometry (LC–MS). To be noted: 2 µM.
Consider `O=C1CC2(CCCC2)CC(=O)N1CCCCN1CCN(c2ncccn2)CC1` [BUSPIRONE], for which the “Bacterial Biotransformation” value was “Compound NOT metabolized”.
In the case of `COc1cc2nc(N3CCN(C(=O)C4CCCO4)CC3)nc(N)c2cc1OC` (configuration not stated) [TERAZOSIN], the “Bacterial Biotransformation” value is “Compound NOT metabolized”.

The next series in a line: The drug is tested on Dorea formicigenerans strain: ATCC27755 for biotransformation. The drug concentrations were measured before and after a 12-h incubation by liquid-chromatography-coupled mass spectrometry (LC–MS). Particulars: 2 µM.
Consider `O=C1CC2(CCCC2)CC(=O)N1CCCCN1CCN(c2ncccn2)CC1` [BUSPIRONE], for which the “Bacterial Biotransformation” value is listed as “Compound NOT metabolized”.
Still for that read-out and setting: next, `COc1cc2nc(N3CCN(C(=O)C4CCCO4)CC3)nc(N)c2cc1OC` (configuration not stated) [TERAZOSIN]: “Compound NOT metabolized”.

For a further series the following is noted: akkermansia muciniphila, 12 h, 2 µM.
Description: The drug is tested on Akkermansia muciniphila strain: ATCC BAA-835 for biotransformation. The drug concentrations were measured before and after a 12-h incubation by liquid-chromatography-coupled mass spectrometry (LC–MS)
For the compound `O=C1CC2(CCCC2)CC(=O)N1CCCCN1CCN(c2ncccn2)CC1` [BUSPIRONE], the “Bacterial Biotransformation” value is on record as “Compound NOT metabolized”.
As to `COc1cc2nc(N3CCN(C(=O)C4CCCO4)CC3)nc(N)c2cc1OC` (configuration not stated) [TERAZOSIN], the “Bacterial Biotransformation” value is listed as “Compound NOT metabolized”.

Another series is described as follows: The drug is tested on Ruminococcus torques strain: ATCC27756 for biotransformation. The drug concentrations were measured before and after a 12-h incubation by liquid-chromatography-coupled mass spectrometry (LC–MS). To be noted: 2 µM. The arrangement: dose 2 uM, timepoint 0 vs 12 hours. The format is ADME.
With `O=C1CC2(CCCC2)CC(=O)N1CCCCN1CCN(c2ncccn2)CC1` [BUSPIRONE], the “Bacterial Biotransformation” value is “Compound NOT metabolized”.
Still for that read-out and setting: then `COc1cc2nc(N3CCN(C(=O)C4CCCO4)CC3)nc(N)c2cc1OC` (configuration not stated) [TERAZOSIN], with “Compound NOT metabolized”.

The conditions of another series: roseburia intestinalis, 12 h, 2 µM.
Description: The drug is tested on Roseburia intestinalis strain: L1-82 for biotransformation. The drug concentrations were measured before and after a 12-h incubation by liquid-chromatography-coupled mass spectrometry (LC–MS)
Regarding `O=C1CC2(CCCC2)CC(=O)N1CCCCN1CCN(c2ncccn2)CC1` [BUSPIRONE], the “Bacterial Biotransformation” value is reported as “Compound NOT metabolized”.
The same measure, in the same setting: next, `COc1cc2nc(N3CCN(C(=O)C4CCCO4)CC3)nc(N)c2cc1OC` (configuration not stated) [TERAZOSIN]: “Compound NOT metabolized”.

The nature of another series: The drug is tested on Providencia rettgeri strain: DSM1131 for biotransformation. The drug concentrations were measured before and after a 12-h incubation by liquid-chromatography-coupled mass spectrometry (LC–MS). The format is ADME. The arrangement: dose 2 uM, timepoint 0 vs 12 hours. To be noted: 2 µM.
Take `COc1cc2nc(N3CCN(C(=O)C4CCCO4)CC3)nc(N)c2cc1OC` (configuration not stated) [TERAZOSIN]: the “Bacterial Biotransformation” value is reported as “Compound NOT metabolized”.
